≈ marks a conversion by molar mass, not a printed value. Each block holds one compound with its values, some of them ahead of it.
Experiments:
Assay in all cases: ≥ marks a high value that may be exact or a test limit, other limits are often not marked, values filed in µg/mL are converted to µM
[1] = test system: Proteus vulgaris KCTC 2433
[2] = test system: Bacillus subtilis KCTC 1918
[3] = test system: Saccharomyces cerevisiae KCTC 7296
[4] = test system: Staphylococcus aureus KCTC 1621
[5] = test system: Acinetobacter baumannii KCTC 2508
[6] = test system: Salmonella typhimurium KCTC 1926
Acinetobacter baumannii = test system: Acinetobacter baumannii
[7] = test system: Candida albicans TIMM 1768
[8] = test system: Trichosporon beigelii KCTC 7707
[9] = test system: Staphylococcus aureus IFO 12732
[10] = test system: Escherichia coli IFO 12734
[11] = test system: Bacillus subtilis IFO 3513
[12] = test system: Salmonella enterica subsp. enterica serovar Typhimurium ATCC 14028
[13] = test system: Pseudomonas aeruginosa ATCC 13388
[14] = test system: Escherichia coli ATCC 11219
[15] = test system: Staphylococcus aureus ATCC 6538
[16] = test system: Klebsiella pneumoniae ATCC 10031
[17] = test system: Salmonella enterica serovar Typhimurium
Candida albicans = test system: Candida albicans
[18] = test system: Staphylococcus epidermidis
[19] = test system: Staphylococcus aureus ATCC 25923
[20] = test system: Pseudomonas aeruginosa H103
Escherichia coli UB1005 = test system: Escherichia coli UB1005
[21] = test system: Enterococcus faecalis ATCC 29212

SMILES: CC[C@H](C)[C@H](N)C(=O)N[C@@H](CC(C)C)C(=O)N1CCC[C@H]1C(=O)N[C@@H](Cc1c[nH]c2ccccc12)C(=O)N[C@@H](CCCCN)C(=O)N[C@@H](Cc1c[nH]c2ccccc12)C(=O)N1CCC[C@H]1C(=O)N[C@@H](Cc1c[nH]c2ccccc12)C(=O)N[C@@H](CC(C)C)C(=O)N1CCC[C@H]1C(=O)N[C@@H](Cc1c[nH]c2ccccc12)C(=O)N[C@@H](CCCCN)C(=O)N[C@@H](CCCCN)C(N)=O [ILPWKWPWLPWKK]
MIC [9]: 1.76 µM (≈ 3.13 µg/mL)
MIC [10]: 28.1 µM (≈ 50 µg/mL)
MIC [11]: 1.76 µM (≈ 3.13 µg/mL)

SMILES: CC[C@H](C)[C@H](NC(=O)CNC(=O)[C@H](CC(C)C)NC(=O)[C@H](CCCN=C(N)N)NC(=O)[C@H](CCCCN)NC(=O)[C@H](Cc1ccccc1)NC(=O)[C@@H](NC(=O)[C@H](CCCCN)NC(=O)[C@H](CCCCN)NC(=O)[C@H](C)N)C(C)C)C(=O)NCC(=O)N[C@@H](C)C(=O)N[C@H](C(=O)N[C@@H](CC(C)C)C(=O)N[C@@H](Cc1c[nH]c2ccccc12)C(=O)N[C@H](C(=O)N[C@@H](CC(C)C)C(=O)N[C@H](C(=O)N[C@@H](Cc1c[nH]c2ccccc12)C(=O)NCC(=O)O)[C@@H](C)O)C(C)C)C(C)C [AKKVFKRLGIGAVLWVLTWG]
MIC [1]: 3.12 µM (≈ 7 µg/mL)
MIC [2]: 6.25 µM (≈ 14 µg/mL)
MIC [3]: ≥ 50 µM
MIC [4]: 3.12 µM (≈ 7 µg/mL)
MIC [6]: 0.78 µM (≈ 1.75 µg/mL)
MIC [7]: ≥ 50 µM
MIC [8]: ≥ 50 µM

SMILES: CC[C@H](C)[C@H](NC(=O)[C@H](C)N)C(=O)N[C@@H](Cc1cnc[nH]1)C(=O)N[C@@H](CC(=O)O)C(=O)N[C@H](C(=O)N[C@@H](CC(C)C)C(=O)N[C@@H](CCCCN)C(=O)N[C@@H](Cc1ccc(O)cc1)C(=O)NCC(=O)N[C@@H](CCCCN)C(=O)N1CCC[C@H]1C(=O)N[C@@H](CO)C(N)=O)[C@@H](C)CC [AIHDILKYGKPS]
MIC [12]: 3 µM (≈ 4.02 µg/mL)
MIC [13]: 10 µM (≈ 13.4 µg/mL)
MIC [14]: ≥ 50 µM
MIC [15]: 10 µM (≈ 13.4 µg/mL)
MIC [16]: ≥ 50 µM

SMILES: CC[C@H](C)[C@H](NC(=O)CN)C(=O)N[C@@H](CCCN=C(N)N)C(=O)N[C@@H](CCCN=C(N)N)C(=O)N[C@H](C(=O)N[C@@H](CC(C)C)C(=O)N[C@@H](CCCN=C(N)N)C(=O)N[C@@H](Cc1ccc(O)cc1)C(=O)NCC(=O)N[C@@H](CCCN=C(N)N)C(=O)N1CCC[C@H]1C(=O)N[C@@H](CO)C(N)=O)[C@@H](C)CC [GIRRILRYGRPS]
MIC [12]: 10 µM (≈ 14.4 µg/mL)
MIC [13]: 10 µM (≈ 14.4 µg/mL)
MIC [14]: 4 µM (≈ 5.77 µg/mL)
MIC [15]: 5 µM (≈ 7.21 µg/mL)
MIC [16]: 10 µM (≈ 14.4 µg/mL)

SMILES: CC[C@H](C)[C@H](NC(=O)[C@H](CCCCN)NC(=O)[C@@H](NC(=O)[C@@H](NC(=O)[C@H](CCCN=C(N)N)NC(=O)[C@H](C)NC(=O)[C@H](CC(C)C)NC(=O)[C@@H](N)CCCN=C(N)N)[C@@H](C)CC)C(C)C)C(=O)N[C@@H](CCCN=C(N)N)C(=O)N[C@H](C(=O)N[C@@H](C)C(=O)N[C@@H](CCCN=C(N)N)C(N)=O)C(C)C [RLARIVKIRVAR]
MIC [17]: ≥ 43.4 µM
MIC (Candida albicans): 21.4 µM (≈ 31 µg/mL)
MIC [18]: 21.4 µM (≈ 31 µg/mL)
MIC [19]: 86.2 µM (≈ 125 µg/mL)
MIC [20]: 21.4 µM (≈ 31 µg/mL)
MIC (Escherichia coli UB1005): 11 µM (≈ 16 µg/mL)
MIC [21]: 86.2 µM (≈ 125 µg/mL)

SMILES: CC[C@H](C)[C@H](NC(=O)[C@@H](NC(=O)[C@@H](N)CCCNC(=N)N)[C@@H](C)CC)C(=O)N[C@@H](CC(=O)O)C(=O)N[C@@H](CC(C)C)C(=O)N[C@@H](CC(C)C)C(=O)N[C@@H](Cc1c[nH]c2ccccc12)C(=O)N[C@@H](CCCNC(=N)N)C(=O)N[C@H](C(=O)N[C@@H](CCCNC(=N)N)C(=O)N[C@@H](CCCNC(=N)N)C(=O)N1CCC[C@H]1C(=O)N[C@@H](CCC(N)=O)C(=O)N[C@@H](Cc1c[nH]c2ccccc12)C(=O)N1CCC[C@H]1C(=O)N[C@@H](CCCCN)C(=O)N[C@@H](Cc1ccccc1)C(=O)N[C@H](C(=O)N[C@H](C(=O)N[C@H](C(=O)N[C@@H](Cc1c[nH]c2ccccc12)C(=O)N[C@H](C(=O)N[C@H](C=O)CCCNC(=N)N)C(C)C)C(C)C)[C@@H](C)O)C(C)C)C(C)C [RIIDLLWRVRRPQWPKFVTVWVR]
MIC [3]: 14.1 µM (≈ 42.5 µg/mL)
MIC [7]: 14.1 µM (≈ 42.5 µg/mL)
MIC [8]: 14.1 µM (≈ 42.5 µg/mL)

Now from value to compound:

MIC [1]: 6.25 µM (≈ 13.1 µg/mL)
MIC [2]: 0.78 µM (≈ 1.64 µg/mL)
MIC [3]: 12.5 µM (≈ 26.2 µg/mL)
MIC [4]: 1.56 µM (≈ 3.28 µg/mL)
MIC [5]: 6.25 µM (≈ 13.1 µg/mL)
MIC [6]: 0.39 µM (≈ 0.819 µg/mL)
MIC (Acinetobacter baumannii): 6.25 µM (≈ 13.1 µg/mL)
MIC [7]: 12.5 µM (≈ 26.2 µg/mL)
MIC [8]: 17.7 µM (≈ 37.1 µg/mL)
SMILES: CC[C@H](C)[C@H](NC(=O)CNC(=O)[C@H](CC(C)C)NC(=O)[C@H](CCCN=C(N)N)NC(=O)[C@H](CCCCN)NC(=O)[C@H](Cc1ccccc1)NC(=O)[C@@H](NC(=O)[C@H](CCCCN)NC(=O)[C@H](CCCCN)NC(=O)[C@H](C)N)C(C)C)C(=O)NCC(=O)N[C@@H](C)C(=O)N[C@H](C(=O)N[C@@H](CC(C)C)C(=O)N[C@@H](CCCCN)C(=O)N[C@H](C(=O)N[C@@H](CC(C)C)C(=O)N[C@H](C(=O)N[C@H](C(=O)NCC(=O)O)[C@@H](C)O)[C@@H](C)O)C(C)C)C(C)C [AKKVFKRLGIGAVLKVLTTG]

MIC [9]: 3.45 µM (≈ 6.25 µg/mL)
MIC [10]: 13.8 µM (≈ 25 µg/mL)
MIC [11]: 1.73 µM (≈ 3.13 µg/mL)
SMILES: CC[C@H](C)[C@H](N)C(=O)N[C@@H](CC(C)C)C(=O)N1CCC[C@H]1C(=O)N[C@@H](Cc1c[nH]c2ccccc12)C(=O)N[C@@H](CCCCN)C(=O)N[C@@H](Cc1c[nH]c2ccccc12)C(=O)N1CCC[C@H]1C(=O)N[C@@H](Cc1ccc(O)cc1)C(=O)N[C@@H](CC(C)C)C(=O)N1CCC[C@H]1C(=O)N[C@@H](Cc1c[nH]c2ccccc12)C(=O)N[C@@H](CCCN=C(N)N)C(=O)N[C@@H](CCCN=C(N)N)C(N)=O [ILPWKWPYLPWRR]

MIC [9]: 1.78 µM (≈ 3.13 µg/mL)
MIC [10]: 28.4 µM (≈ 50 µg/mL)
MIC [11]: 1.78 µM (≈ 3.13 µg/mL)
SMILES: CC[C@H](C)[C@H](N)C(=O)N[C@@H](CC(C)C)C(=O)N1CCC[C@H]1C(=O)N[C@@H](CC(C)C)C(=O)N[C@@H](CCCCN)C(=O)N[C@@H](CC(C)C)C(=O)N1CCC[C@H]1C(=O)N[C@@H](Cc1c[nH]c2ccccc12)C(=O)N[C@@H](Cc1c[nH]c2ccccc12)C(=O)N1CCC[C@H]1C(=O)N[C@@H](Cc1c[nH]c2ccccc12)C(=O)N[C@@H](CCCN=C(N)N)C(=O)N[C@@H](CCCN=C(N)N)C(N)=O [ILPLKLPWWPWRR]

MIC [12]: > 50 µM
MIC [13]: ≥ 50 µM
MIC [14]: 20 µM (≈ 24.7 µg/mL)
MIC [15]: 10 µM (≈ 12.3 µg/mL)
MIC [16]: 20 µM (≈ 24.7 µg/mL)
SMILES: CC[C@H](C)[C@H](NC(=O)CN)C(=O)N[C@@H](Cc1cnc[nH]1)C(=O)N[C@@H](CC(=O)O)C(=O)N[C@H](C(=O)N[C@@H](CC(C)C)C(=O)N[C@@H](CCCCN)C(=O)N[C@@H](C)C(=O)NCC(=O)N[C@@H](CCCCN)C(=O)N1CCC[C@H]1C(=O)N[C@@H](CO)C(N)=O)[C@@H](C)CC [GIHDILKAGKPS]

MIC [17]: 5.7 µM (≈ 11.4 µg/mL)
MIC (Candida albicans): 2.9 µM (≈ 5.79 µg/mL)
MIC [18]: 0.7 µM (≈ 1.4 µg/mL)
MIC [19]: 0.7 µM (≈ 1.4 µg/mL)
MIC [20]: 5.7 µM (≈ 11.4 µg/mL)
MIC (Escherichia coli UB1005): 1.4 µM (≈ 2.8 µg/mL)
MIC [21]: 2.9 µM (≈ 5.79 µg/mL)
SMILES: CC[C@H](C)[C@H](N)C(=O)N[C@@H](CC(C)C)C(=O)N1CCC[C@H]1C(=O)N[C@@H](Cc1c[nH]c2ccccc12)C(=O)N[C@@H](CCCCN)C(=O)N[C@@H](Cc1c[nH]c2ccccc12)C(=O)N[C@@H](CCCN=C(N)N)C(=O)N[C@@H](Cc1c[nH]c2ccccc12)C(=O)N[C@@H](Cc1c[nH]c2ccccc12)C(=O)N[C@@H](CCCCN)C(=O)N[C@@H](Cc1c[nH]c2ccccc12)C(=O)N[C@@H](CCCN=C(N)N)C(=O)N[C@@H](CCCN=C(N)N)C(=O)O [ILPWKWRWWKWRR]
